In the supplement of paper PMC10307832:

Tests used:
Assay in all cases: relative viability (nuclei count vs DMSO), 5 days (fraction); higher = more cells survive
LXF-289 = system: LXF-289
Outline: (§1)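 Relative viability was taken as the ratio of nuclei in treated wells to nuclei in vehicle wells. Lung cancer cell lines in 1536-well plates received compounds by pin tool one day after seeding, either one drug alone or a fixed anchor-drug dose plus five library-drug doses (not always all listed) in √10 steps. Nuclei were counted on 4× images after 5 days of treatment, and values are medians of duplicate plates.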

EMC-BAC-2 = system: EMC-BAC-2
Outline: as §1

NCI-H2126 = system: NCI-H2126
Outline: as §1

NCI-H1650 = system: NCI-H1650
Outline: as §1

NCI-H2023 = system: NCI-H2023
Outline: as §1

NCI-H1993 = system: NCI-H1993
Outline: as §1

H3255 = system: H3255
Outline: as §1

HOP-62 = system: HOP-62
Outline: as §1

NCI-H661 = system: NCI-H661
Outline: as §1

NCI-H322M = system: NCI-H322M
Outline: as §1

SW 1573 = system: SW 1573
Outline: as §1

NCI-H727 = system: NCI-H727
Outline: as §1

NCI-H2347 = system: NCI-H2347
Outline: as §1

SK-LU-1 = system: SK-LU-1
Outline: as §1

NCI-H2009 = system: NCI-H2009
Outline: as §1

NCI-H358 = system: NCI-H358
Outline: as §1

BEN = system: BEN
Outline: as §1

NCI-H2342 = system: NCI-H2342
Outline: as §1

PC-14 = system: PC-14
Outline: as §1

NCI-H1915 = system: NCI-H1915
Outline: as §1

NCI-H2085 = system: NCI-H2085
Outline: as §1

NCI-H647 = system: NCI-H647
Outline: as §1

LCLC-97TM1 = system: LCLC-97TM1
Outline: as §1

Clc1ccc(Nc2nnc(Cc3ccncc3)c3ccccc23)cc1 [Vatalanib] + O=C(CCCCCCC(=O)Nc1ccccc1)NO [Vorinostat] (partner 1 µM)
relative viability (LXF-289; first compound 0.04 µM): 0.844 | relative viability (LXF-289; first compound 0.1265 µM): 0.832 | relative viability (LXF-289; first compound 0.4 µM): 0.801 | relative viability (LXF-289; first compound 1.265 µM): 0.712 | relative viability (LXF-289; first compound 4 µM): 0.75 | relative viability (EMC-BAC-2; first compound 0.04 µM): 0.448 | relative viability (EMC-BAC-2; first compound 0.1265 µM): 0.414 | relative viability (EMC-BAC-2; first compound 0.4 µM): 0.392 | relative viability (EMC-BAC-2; first compound 4 µM): 0.457 | relative viability (NCI-H2126; first compound 0.04 µM): 0.704 | relative viability (NCI-H2126; first compound 0.1265 µM): 0.835 | relative viability (NCI-H2126; first compound 0.4 µM): 0.837 | relative viability (NCI-H2126; first compound 1.265 µM): 0.766 | relative viability (NCI-H2126; first compound 4 µM): 0.691 | relative viability (NCI-H1650; first compound 0.04 µM): 0.555 | relative viability (NCI-H1650; first compound 0.1265 µM): 0.517 | relative viability (NCI-H1650; first compound 0.4 µM): 0.616 | relative viability (NCI-H1650; first compound 1.265 µM): 0.473 | relative viability (NCI-H1650; first compound 4 µM): 0.534 | relative viability (NCI-H2023; first compound 0.04 µM): 0.674 | relative viability (NCI-H2023; first compound 0.1265 µM): 0.688 | relative viability (NCI-H2023; first compound 0.4 µM): 0.716 | relative viability (NCI-H2023; first compound 1.265 µM): 0.5 | relative viability (NCI-H2023; first compound 4 µM): 0.628 | relative viability (NCI-H1993; first compound 0.04 µM): 0.728 | relative viability (NCI-H1993; first compound 0.1265 µM): 0.795 | relative viability (NCI-H1993; first compound 0.4 µM): 0.806 | relative viability (NCI-H1993; first compound 1.265 µM): 0.709 | relative viability (NCI-H1993; first compound 4 µM): 0.726 | relative viability (H3255; first compound 0.04 µM): 0.744 | relative viability (H3255; first compound 0.1265 µM): 0.832 | relative viability (H3255; first compound 0.4 µM): 0.714 | relative viability (H3255; first compound 1.265 µM): 0.746 | relative viability (H3255; first compound 4 µM): 0.689 | relative viability (HOP-62; first compound 0.04 µM): 0.6 | relative viability (HOP-62; first compound 0.1265 µM): 0.557 | relative viability (HOP-62; first compound 0.4 µM): 0.758 | relative viability (HOP-62; first compound 1.265 µM): 0.597 | relative viability (HOP-62; first compound 4 µM): 0.642 | relative viability (NCI-H661; first compound 0.04 µM): 0.8 | relative viability (NCI-H661; first compound 0.1265 µM): 0.872 | relative viability (NCI-H661; first compound 0.4 µM): 0.778 | relative viability (NCI-H661; first compound 1.265 µM): 0.775 | relative viability (NCI-H661; first compound 4 µM): 0.805 | relative viability (NCI-H322M; first compound 0.04 µM): 0.898 | relative viability (NCI-H322M; first compound 0.1265 µM): 0.867 | relative viability (NCI-H322M; first compound 0.4 µM): 0.825 | relative viability (NCI-H322M; first compound 4 µM): 0.899 | relative viability (SW 1573; first compound 0.1265 µM): 0.812 | relative viability (SW 1573; first compound 0.4 µM): 1.4 | relative viability (SW 1573; first compound 1.265 µM): 0.839 | relative viability (SW 1573; first compound 4 µM): 0.624 | relative viability (NCI-H727; first compound 0.1265 µM): 1.28 | relative viability (NCI-H727; first compound 0.4 µM): 1.17 | relative viability (NCI-H727; first compound 1.265 µM): 1.1 | relative viability (NCI-H727; first compound 4 µM): 1.17 | relative viability (NCI-H2347; first compound 0.04 µM): 0.473 | relative viability (NCI-H2347; first compound 0.1265 µM): 0.772 | relative viability (NCI-H2347; first compound 0.4 µM): 0.516 | relative viability (NCI-H2347; first compound 1.265 µM): 0.501 | relative viability (NCI-H2347; first compound 4 µM): 0.586 | relative viability (SK-LU-1; first compound 0.04 µM): 0.829 | relative viability (SK-LU-1; first compound 0.1265 µM): 0.798 | relative viability (SK-LU-1; first compound 0.4 µM): 1 | relative viability (SK-LU-1; first compound 1.265 µM): 0.721 | relative viability (SK-LU-1; first compound 4 µM): 0.8 | relative viability (NCI-H2009; first compound 0.04 µM): 0.767 | relative viability (NCI-H2009; first compound 0.1265 µM): 0.741 | relative viability (NCI-H2009; first compound 0.4 µM): 0.735 | relative viability (NCI-H2009; first compound 1.265 µM): 0.732 | relative viability (NCI-H2009; first compound 4 µM): 0.687 | relative viability (NCI-H358; first compound 0.04 µM): 0.683 | relative viability (NCI-H358; first compound 0.1265 µM): 0.719 | relative viability (NCI-H358; first compound 0.4 µM): 0.686 | relative viability (NCI-H358; first compound 1.265 µM): 0.713 | relative viability (NCI-H358; first compound 4 µM): 0.632 | relative viability (BEN; first compound 0.04 µM): 0.57 | relative viability (BEN; first compound 0.1265 µM): 0.625 | relative viability (BEN; first compound 0.4 µM): 0.594 | relative viability (BEN; first compound 1.265 µM): 0.561 | relative viability (BEN; first compound 4 µM): 0.61 | relative viability (NCI-H2342; first compound 0.04 µM): 0.747 | relative viability (NCI-H2342; first compound 0.1265 µM): 0.714 | relative viability (NCI-H2342; first compound 0.4 µM): 0.741 | relative viability (NCI-H2342; first compound 1.265 µM): 0.762 | relative viability (NCI-H2342; first compound 4 µM): 0.69 | relative viability (PC-14; first compound 0.04 µM): 0.746 | relative viability (PC-14; first compound 0.1265 µM): 0.721 | relative viability (PC-14; first compound 0.4 µM): 0.801 | relative viability (PC-14; first compound 1.265 µM): 0.716 | relative viability (PC-14; first compound 4 µM): 0.62 | relative viability (NCI-H1915; first compound 0.04 µM): 0.507 | relative viability (NCI-H1915; first compound 0.1265 µM): 0.544 | relative viability (NCI-H1915; first compound 0.4 µM): 0.587 | relative viability (NCI-H1915; first compound 1.265 µM): 0.482 | relative viability (NCI-H1915; first compound 4 µM): 0.518 | relative viability (NCI-H2085; first compound 0.04 µM): 0.868 | relative viability (NCI-H2085; first compound 0.1265 µM): 0.796 | relative viability (NCI-H2085; first compound 0.4 µM): 0.852 | relative viability (NCI-H2085; first compound 1.265 µM): 0.747 | relative viability (NCI-H2085; first compound 4 µM): 0.702 | relative viability (NCI-H647; first compound 0.04 µM): 0.658 | relative viability (NCI-H647; first compound 0.1265 µM): 0.685 | relative viability (NCI-H647; first compound 0.4 µM): 0.87 | relative viability (NCI-H647; first compound 1.265 µM): 0.641 | relative viability (NCI-H647; first compound 4 µM): 0.632 | relative viability (LCLC-97TM1; first compound 0.04 µM): 0.601 | relative viability (LCLC-97TM1; first compound 0.1265 µM): 0.613 | relative viability (LCLC-97TM1; first compound 0.4 µM): 0.804 | relative viability (LCLC-97TM1; first compound 1.265 µM): 0.65 | relative viability (LCLC-97TM1; first compound 4 µM): 0.649
